# Reference: ChEMBL document CHEMBL1909590, “Design, synthesis and docking studies of new quinoline-3-carbohydrazide derivatives as antitubercular agents” (2011)
# System: Mycobacterium tuberculosis
# Assay: Antimycobacterial activity against isoniazid, rifampicin and ethambuto-resistant Mycobacterium tuberculosis using compound level ranging from 0.3125 to 5 ug/mL after 7 days by resazurin reduction test
# Assay type: functional
# Details: 168 h
row,SMILES,MIC
1,COc1ccc(/C=N/NC(=O)c2cnc3c(C(F)(F)F)cccc3c2O)c(F)c1,6.25 µg/mL
2,Cc1cc(C)cc(NC(=O)NNC(=O)c2cnc3c(C(F)(F)F)cccc3c2O)c1,> 50 µg/mL
3,COc1ccc(/C=N/NC(=O)c2cnc3c(C(F)(F)F)cccc3c2O)cc1O,> 50 µg/mL
4,O=C(N/N=C/c1ccc(OC(F)(F)C(F)F)cc1)c1cnc2c(C(F)(F)F)cccc2c1O,25 µg/mL
5,CO[C@H]1/C=C/O[C@@]2(C)Oc3c(C)c(O)c4c(O)c(c(/C=N/N5CCN(C)CC5)c(O)c4c3C2=O)NC(=O)/C(C)=C\C=C\[C@H](C)[C@H](O)[C@@H](C)[C@@H](O)[C@@H](C)[C@H](OC(C)=O)[C@@H]1C [RIFAMPIN],25 µg/mL
6,COc1ccc2[nH]cc(/C=N/NC(=O)c3cnc4c(C(F)(F)F)cccc4c3O)c2c1,6.25 µg/mL
7,Cc1[nH]cnc1/C=N/NC(=O)c1cnc2c(C(F)(F)F)cccc2c1O,> 50 µg/mL
8,NNC(=O)c1ccncc1 [ISONIAZID],12.5 µg/mL
9,O=C(NNC(=O)c1cnc2c(C(F)(F)F)cccc2c1O)Nc1cccc(Cl)c1,25 µg/mL
10,O=C(NNC(=S)Nc1ccccc1F)c1cnc2c(C(F)(F)F)cccc2c1O,12.5 µg/mL
11,CCc1ccc(NC(=O)NNC(=O)c2cnc3c(C(F)(F)F)cccc3c2O)cc1,> 50 µg/mL
12,O=C(NNC(=S)Nc1cccc(Cl)c1)c1cnc2c(C(F)(F)F)cccc2c1O,25 µg/mL
13,Cc1cccc2c(/C=N/NC(=O)c3cnc4c(C(F)(F)F)cccc4c3O)c[nH]c12,6.25 µg/mL
14,O=C(N/N=C/c1cc(F)ccc1O)c1cnc2c(C(F)(F)F)cccc2c1O,> 50 µg/mL
15,Cc1ccc(NC(=O)NNC(=O)c2cnc3c(C(F)(F)F)cccc3c2O)cc1,25 µg/mL
16,COc1ccc(/C=N/NC(=O)c2cnc3c(C(F)(F)F)cccc3c2O)cc1,12.5 µg/mL
17,Cn1cccc1/C=N\NC(=O)c1cnc2c(C(F)(F)F)cccc2c1O,6.25 µg/mL
18,Cn1nnc2cc(/C=N\NC(=O)c3cnc4c(C(F)(F)F)cccc4c3O)ccc21,> 50 µg/mL
19,O=C(N/N=C/c1cnc[nH]1)c1cnc2c(C(F)(F)F)cccc2c1O,> 50 µg/mL
20,COC(=O)Cc1cc(/C=N/NC(=O)c2cnc3c(C(F)(F)F)cccc3c2O)co1,> 50 µg/mL
21,COc1ccc(NC(=O)NNC(=O)c2cnc3c(C(F)(F)F)cccc3c2O)cc1,12.5 µg/mL
22,Cc1ccc(/C=N/NC(=O)c2cnc3c(C(F)(F)F)cccc3c2O)cc1,> 50 µg/mL
23,COc1ccc(NC(=S)NNC(=O)c2cnc3c(C(F)(F)F)cccc3c2O)cc1,> 50 µg/mL
